The assay concerns melanoma cell lines. In words: MHC class I expression across the panel of eight melanoma cell lines. The format is cell-based, human. To be noted: IFNg titration, 72-hour treatment, FIGS. 1 and 2 (A375, SKMEL-2). The protocol: The goal of this study was to measure the effects of binimetinib on cell surface MHC class I expression in various melanoma cell lines. In this study, eight melanoma cell lines were evaluated: MEL-JUSO (NRAS Q61L mutation), IPC-298 (NRAS Q61L mutation), A375 (BRAF V600E, homozygous mutation), HS936.T (NRAS Q61K mutation and BRAF N581K mutation), MM485 (NRAS Q61R mutation), SK-MEL-2 (NRAS Q61R mutation), MM415 (NRAS Q61L mutation), Malme-3M (BRAF V600E, heterozygous mutation). The cells lines were seeded into flat bottom 96-well tissue culture plates at a density of 5000 cells per well and allowed to adhere overnight. The following day cells were treated with vehicle control (0.25% DMSO) or varying dilutions of Binimetinib (0.7 nM-25000 nM) for 1 hour. Cells were then treated with vehicle control or 100 ng/ml IFNgamma (R&D systems) for 72 hours. Cells were washed, trypsinized, and stained with Alexa Fluor® 647 anti-human HLA-A,B,C antibody (W6/32, eBioscience) and analyzed on a BD FACSCanto II flow cytometer. An IFNg titration and time course were performed for assay optimization. Maximal induction of MHC class I expression was seen ˜100 ng/mL of IFNγ (see, e.g., FIGS. 1 and 2).

“IFNγ: IFNgamma (R&D systems) used to induce MHC class I expression”: the “IFNγ concentration giving maximal induction of MHC class I expression” value is listed as around 100 ng/mL.

The values are drawn from patent publication US20200368205A1, “METHODS AND COMBINATION THERAPY TO TREAT CANCER” (ARRAY BIOPHARMA INC., priority 2018, published 2020).
